Reference: US20140323457A1, “BETA-O/S/N FATTY ACID BASED COMPOUNDS AS ANTIBACTERIAL AND ANTIPROTOZOAL AGENTS” (LUDWIG-MAXIMILIANS-UNIVERSITÄT MÜNCHEN, priority 2011, published 2014)
pEC50: −log10 of the molar value. Read-outs that look alike come from different tables or passages of the source. Blank lines part the entries; values can stand above or below the molecule they belong to.

Tests used:
[1] = stability in human plasma; assay type: in vitro ADME; details: SKH-1 and Balb/C (mouse plasma); positive control at 100 μM in every experiment (human and mouse plasma), 37° C.
Method: (§1) We investigated the stability of the compound herein in plasma preparations in comparison the beta-lactone compounds. Human plasma was obtained lyophilized from Sigma and reconstituted in sterile H2O. For human plasma 3.8% trisodium citrate was used as anticoagulant. Mouse plasma was prepared from whole blood samples from SKH-1 and Balb/C mice using Lithium-Heparin as anticoagulant and pooled from at least three different donor animals. Plasma samples were sterile filtered and stored in aliquots at −20° C. […] Test compounds were diluted 1:100 from a DMSO stock solution to a final concentration of 100 μM in both human and mouse plasma prewarmed for 10 min in an orbital shaker to 37° C. Test compounds were further incubated at 37° C. in the orbital shaker. Samples were withdrawn at time points 0, 5, 10, 20, 30, 60, 120, 240 min and immediately quenched by the addition of an equal volume of ice-cold acetonitrile. Subsequently, all samples were spun at maximum speed in a microcentrifuge to pellet precipitated proteins and samples were prepared for LC-MS analysis. Compound quantification occurred through analysis via the LTQ-FT high resolution mass-spectrometer and XCalibur-Software purchased at Thermo Scientific, Dreieich, D-63303 Germany.

CIpP = molecular target: T1, CIpP (Staphylococcus aureus, UniProt Q2G036); assay: competitive ABPP proteome labeling of living S. aureus cells with U1P probe; assay type: binding; details: FIG. 4
T1 construct: Living S. aureus NCTC8325 cells from a fresh stationary liquid culture were aliquoted; endogenous in cells; host or cells: living S. aureus NCTC8325 cells
T1 sequence (Q2G036 1-195): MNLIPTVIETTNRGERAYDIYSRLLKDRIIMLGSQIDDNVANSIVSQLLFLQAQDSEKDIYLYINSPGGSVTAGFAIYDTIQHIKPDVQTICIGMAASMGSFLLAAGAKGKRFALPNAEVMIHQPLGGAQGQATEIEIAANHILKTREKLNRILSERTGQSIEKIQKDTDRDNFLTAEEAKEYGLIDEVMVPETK
Description: The compound U1P was used as a probe for activity-based labeling (activity-based protein profiling, ABPP) of the S. aureus NCTC 8325 proteome, as described in WO 2009/106211.
The U1P ABPP probe represents the lead structures of the known beta-lactone CIpP inhibitors modified with a terminal alkyne group. This compound is both active in hemolysis inhibition and CIpP inhibition. The terminal alkyne group comprised in UIP can be used for appending a fluorophore such as rhodamine-azide using click chemistry (1,3-dipolar Huisgen cycloaddition), which allows to scan the proteome of S. aureus for possible covalent binding partners. This compound consistently labels CIpP protease in a covalent manner in S. aureus proteomes.
The inventors used this compound in order to investigate whether compounds according to the present invention are able to reduce or suppress by non-covalent binding the covalent binding of the U1P ABPP probe to proteins of the S. aureus proteome. For a detailed description of the technique underlying these experiments see T. Böttcher, M. Pitscheider S. A. Sieber, Angew Chem Int Ed Engl. 2010, 2680.
Living S. aureus NCTC8325 cells from a fresh stationary liquid culture were aliquoted to equivalents of 1 ml of OD600=2. Bacterial cells were washed and resuspended in 100 μl PBS. Bacterial cell aliquots were then pre-incubated with the compounds AVU1AA or VK273 of the invention for 1 h at RT at final concentrations of 5 or 10 mM. Subsequently, the covalent ABPP probe UIP was added to a final concentration of 100 μM for 30 min at RT. After the competitive labeling procedure bacterial cells were washed twice, disrupted and labeled with rhodamine-azide using click chemistry. The labeled S. aureus proteome samples were separated by SDS-PAGE and visualized using fluorescence scanning.

[2] = stability in mouse plasma; assay type: in vitro ADME; details: 100 μM, 37° C., 0-240 min; FIG. 8, FIG. 10
Method: as §1

[3] = tested on: S. aureus strain NCTC 8325; assay: minimal inhibiting concentration (MIC) in liquid bacterial culture; assay type: cell-based; details: overnight 37° C., read-out: MIC
Method: (§2) 1 ml of an appropriate bacterial broth for the standard laboratory S. aureus strain NCTC 8325 were inoculated with 1*10^6 cfu. The cultures were kept overnight at 37° C. with gentle shaking 300 rpm in the presence of compounds AVU1Acid, AVU1AAc, AVU1AA or VK273 according to the present invention at different concentrations or dimethyl sulfoxide (DMSO) as control. Different beta-lactone virulence inhibitors were used as reference compounds. Following overnight incubation the optical density was measured in order to determine the minimal inhibiting concentration (MIC), which is defined as the lowest concentration of an antimicrobial that will inhibit the visible growth of a microorganism after overnight incubation. A 100 μl fraction of the supernatant of the grown bacterial cultures was subsequently analysed for the content of secreted bacterial hemolysins by addition of sheep red blood cells (10% v/v in PBS) and the measurement of the optical density at 410 nm after 30 min incubation at 37° C.

[4] = tested on: S. aureus strain NCTC 8325; assay: liquid culture-based hemolysis assay (secreted hemolysins, sheep red blood cells); assay type: cell-based
Method: The inhibition of hemolysin production has thus been further analysed in liquid bacterial cultures in order to evaluate their potential effects on bacterial growth simultaneously. Besides AVU1Acid, AVU1AAc, AVU1AA and VK273 the following further compounds were tested in liquid bacterial cultures:
as §2
The following results were obtained in further liquid culture-based hemolysis assays. Since the assays were performed at different times with different charges of sheep red blood cells AVU1 has been tested as a reference substance in each assay. The resulting EC50 values determined for the tested compounds have to be assessed with respect to the EC50 value determined for AVU1.

[5] = molecular target: T2, CIpP protease from S. aureus NCTC8325 (SaCIpP) (Staphylococcus aureus, UniProt Q2G036); assay: in vitro inhibition of recombinant S. aureus CIpP with SLY-AMC substrate; assay type: biochemical; details: inhibitor 2 mM (1000×), 30 min RT; SLY-AMC 200 μM; FIG. 3
T2 construct: made in house; host or cells: E. coli
T2 sequence (Q2G036 1-195): T1 sequence (Q2G036 1-195)
Method: The CIpP protease from S. aureus NCTC8325 (SaCIpP) was recombinantly overexpressed in E. coli and purified in order to investigate enzyme inhibition using SLY-AMC (N-succinyl-Leu-Tyr-7-amido-4-methylcoumarin) as fluorogenic model substrate.
Precisely, 9 μl of SaCIpP in buffered solution (final concentration 0.05 mg/ml, 2 μM; buffer: 100 mM NaCl, 20 mM Tris, pH 7.0) were incubated in the presence of 1 μl of various inhibitors (final concentration 2 mM=1000×) for 30 min at room temperature (RT). Subsequently, SLY-AMC was added to a final concentration of 200 μM and the increase in fluorescence due to enzymatic substrate proteolysis was measured using a TECAN GENios Pro™ plate reader at 380/440 nm (excitation/emission) at time intervals of 60 s over 40 min at 37° C. The enzymatic activity was determined as the slope of fluorescence (2=440 nm) over time. As positive controls, the in vivo active beta-lactone compound AVU1 (“U1”; WO 2009/106211) and the in vitro potent CIpP beta-lactone inhibitor D3 (WO 2009/106211) were employed.

- half-life at 100 μM [1]: 6 to 9 min
Compound: CCN(CC)CCOC(=O)c1ccc(N)cc1 [Procaine]

Compound: C#CC[C@H]1C(=O)O[C@@H]1CCc1ccccc1 [U1P, reference compound]
- labeling signal of probe (CIpP; in the absence of competitive compounds): strong labeling signal with CIpP as the main target

Compound: C=CCCCCCCC[C@H]1C(=O)O[C@@H]1CCc1ccccc1 [AVU1, reference compound]
- stability in mouse plasma [2]: degraded within a few minutes
- MIC ([3]; Assay 2): >1000 µM
- MIC ([3]; Assay 3): >1000 µM
- MIC ([3]; Assay 4): >1000 µM
- MIC ([3]; Staphylococcus aureus, NCTC8325, Assay 1): > 1000 µM
- pEC50 ([4]; Staphylococcus aureus, NCTC8325, Erythrocyte, Assay 1, hemolysin production): 3.85
- pEC50 ([4]; Staphylococcus aureus, NCTC8325, Erythrocyte, Assay 2, hemolysin production, assess relative to AVU1): 4.30 to 5.00
- pEC50 ([4]; Staphylococcus aureus, NCTC8325, Erythrocyte, Assay 3, hemolysin production, assess relative to AVU1): 4.00 to 4.30
- pEC50 ([4]; Staphylococcus aureus, NCTC8325, Erythrocyte, Assay 4, hemolysin production, assess relative to AVU1): 4.51

Compound: C=CCCCCCCCC(CO)C(O)CCc1ccccc1 (stereo not shown) [VK273, 2-(non-8-enyl)-5-phenylpentandiol-1,3]
- MIC ([3]; Assay 1): >1000 µM
- inhibition of SaCIpP [5]: inhibit SaCIpP at an at least comparable level as the in vivo active beta-lactone reference compound AVU1
- labeling in the absence of U1P (CIpP; bacterial cells incubated with compound alone): did not result in any unspecific labeling
- target binding of U1P after pre-incubation with competitor (CIpP; pre-incubation 1 h at RT at 5 or 10 mM, U1P 100 μM 30 min): significantly reduced target binding of U1P
- pEC50 ([4]; Assay 1, hemolysin production): 4.61
